How the values were obtained:
Experiment in all cases: steady-state kinetics, ferrocenium reduction
Format in all cases: biochemical
[1] = biological target: T1, AmPDH (pyranose dehydrogenase from Agaricus meleagris; A. meleagris PDH1) (Macropsalliota meleagris, UniProt Q3L245, H581A); conditions: apparent; electron acceptor; 500 mM glucose fixed, 100 mM borate pH 8.5, 30 °C; read-out: Fc^+ / K M
T1 construct: C-terminal His6 tag; covalent FAD
From the text: (§1) steady-state kinetics, ferrocenium reduction on AmPDH (pyranose dehydrogenase from Agaricus meleagris; A. meleagris PDH1)

[2] = biological target: T2, AmPDH (pyranose dehydrogenase from Agaricus meleagris; A. meleagris PDH1) (Macropsalliota meleagris, UniProt Q3L245, H128A); conditions: apparent; electron acceptor; 50 mM glucose fixed, 100 mM borate pH 8.5, 30 °C; non-covalently bound FAD; read-out: Fc^+ / K M
T2 construct: C-terminal His6 tag; covalent FAD
From the text: as §1

[3] = biological target: T3, AmPDH (pyranose dehydrogenase from Agaricus meleagris; A. meleagris PDH1) (Macropsalliota meleagris, UniProt Q3L245); conditions: apparent; electron acceptor; 25 mM glucose fixed, 100 mM borate pH 8.5, 30 °C; read-out: Fc^+ / K M
T3 construct: C-terminal His6 tag; covalent FAD
From the text: as §1

T1 sequence (Q3L245 26-602 H581A): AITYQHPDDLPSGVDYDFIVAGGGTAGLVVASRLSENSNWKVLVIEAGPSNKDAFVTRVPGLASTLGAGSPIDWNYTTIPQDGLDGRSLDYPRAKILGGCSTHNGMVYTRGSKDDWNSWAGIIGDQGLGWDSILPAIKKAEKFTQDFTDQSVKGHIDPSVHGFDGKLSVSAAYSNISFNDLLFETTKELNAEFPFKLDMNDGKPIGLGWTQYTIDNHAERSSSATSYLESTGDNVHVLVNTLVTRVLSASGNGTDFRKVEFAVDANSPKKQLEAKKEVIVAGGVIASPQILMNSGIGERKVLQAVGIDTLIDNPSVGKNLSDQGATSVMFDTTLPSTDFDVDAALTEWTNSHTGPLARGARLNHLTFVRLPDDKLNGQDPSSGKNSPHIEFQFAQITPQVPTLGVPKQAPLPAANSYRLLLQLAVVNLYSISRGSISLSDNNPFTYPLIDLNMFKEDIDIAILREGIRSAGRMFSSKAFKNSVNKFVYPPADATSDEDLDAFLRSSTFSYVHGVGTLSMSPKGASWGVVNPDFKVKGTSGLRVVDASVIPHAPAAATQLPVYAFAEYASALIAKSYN
T3 sequence (Q3L245 26-602): as the sequence (Q3L245 26-602 H581A) above, with A556H counted along it
T2 sequence (Q3L245 26-602 H128A): as the sequence (Q3L245 26-602 H581A) above, with H103A, A556H counted along it

`C1=CCC=C1.C1=CCC=C1.[Fe+3]` [Fc^+, ferrocenium ion] was tested, and the Km [1] was 170 ± 10 µM, the Km [2] was 160 ± 10 µM and the Km [3] was 170 ± 20 µM.
